The values below come from ChEMBL document CHEMBL1201862, “PubChem BioAssay data set” (2004).

Common to all, as to assay: NCI tumour cell line growth inhibition, 48 h
For test [1], the system named is SF-295.
The test system of test [2] is SN12C.
The test system of test [3] is M14.
The subject of test [4] is SR.
Test [5] concerns Malme-3M.
The subject of test [6] is NCI-H522.
In test [7] the test system is OVCAR-8.
The test system of test [8] is COLO 205.
The test system of test [9] is LOX IMVI.
Test [10] deals with MOLT-4.
In test [11] the test system is HCT-15.
Test [12] concerns HT-29.
The subject of test [13] is A549.
For test [14], the system named is 786-0.
For test [15], the system named is ACHN.
The subject of test [16] is A498.
Test [17] has as its system HOP-92.
Test [18] relates to NCI-H23.
Test [19] has as its system CCRF-CEM.
The subject of test [20] is HCC 2998.

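Where inhibition never reached the appropriate level, the endpoint shown equals the highest concentration tested. Otherwise, values were interpolated linearly from a five-concentration, 48-hour dose response in 96-well plates. Abbreviation: GI50, concentration required for 50% inhibition of growth.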 Calls of active or inactive are those of the source. Rule as the data show it: active = GI50 up to about 1.1 µM and inactive = higher. Some results are limits rather than exact numbers.

On to `NNC(=O)c1ccc(OCc2nc3ccccc3[nH]2)cc1`, for which the GI50 in [1] is > 100 µM (inactive); in test [2] it was > 100 µM (inactive); in test [3] it was 53.1 µM (inactive); in test [4], 25.2 µM (inactive); in test [5], > 100 µM (inactive); in test [6], 30 µM (inactive). Moreover, the GI50 is > 100 µM (inactive) in test [7]; 71.4 µM (inactive) in test [8]; > 100 µM (inactive) in [9]; 14.8 µM (inactive) in test [10]; greater than 100 µM in test [11]; > 100 µM (inactive) in [12]. Moreover, the GI50 in [13], in [14], in test [15], in [16], in test [17] and in test [18] was > 100 µM (inactive) each time.
On to `COc1cc(/C=C2\N=C(c3ccccc3)N(c3ccc(S(=O)(=O)Nc4nccs4)cc3)C2=O)ccc1O`, for which the GI50 in test [1] is > 100 µM (inactive); in [2], > 100 µM (inactive); in [19] it was 70.5 µM (inactive); in [3], > 100 µM (inactive); in [4], 59.7 µM (inactive); in [5] it was > 100 µM (inactive). Also, the GI50 in test [6] was 50.4 µM (inactive); in [7], > 100 µM (inactive); in test [8], > 100 µM (inactive); in [9] it was 40.3 µM (inactive); in [10], > 100 µM (inactive); in [11], 57.5 µM. For the same compound, the GI50 in test [12] was 59.7 µM (inactive); in test [13], > 100 µM (inactive); in test [14] it was > 100 µM (inactive); in test [15] it was > 100 µM (inactive); in test [16], > 100 µM (inactive); in test [17] it was 40.7 µM (inactive). In addition, the GI50 in test [18] is > 100 µM (inactive).
In the case of `CN(C)C(=O)OC1=CC2CCC(C1)N2C` (stereo not drawn), the GI50 is > 100 µM (inactive) in [1]; > 100 µM (inactive) in [2]; 28.8 µM (inactive) in [19]; 79.1 µM (inactive) in [3]; 47 µM (inactive) in [4]; > 100 µM (inactive) in test [5]. Besides, the GI50 in test [6] is > 100 µM (inactive); in test [7], > 100 µM (inactive); in [8], > 100 µM (inactive); in [9], 61.4 µM (inactive); in [10], 52.8 µM (inactive); in test [11], 48.3 µM. In addition, the GI50 in test [12] was > 100 µM (inactive); in test [13], 70.8 µM (inactive); in [14], > 100 µM (inactive); in test [15], 82 µM (inactive); in test [16] it was > 100 µM (inactive); in test [17], > 100 µM (inactive). In test [18], the GI50 is > 100 µM (inactive).
Consider `COC(=O)C[C@H](COCc1ccccc1)NC(=O)C[C@H](COCc1ccccc1)NC(=O)OC(C)(C)C`, for which the GI50 in test [1] was 34.1 µM (inactive); in test [2], 26.4 µM (inactive); in [19] it was > 100 µM (inactive); in test [3], 32.8 µM (inactive); in [4] it was 39.1 µM (inactive); in test [5], 36.6 µM (inactive). Further, the GI50 in [6] is 21.2 µM (inactive); in test [7], 24.7 µM (inactive); in test [8], > 100 µM (inactive); in test [9], 53.3 µM (inactive); in test [10], 56 µM (inactive); in test [11], 30.7 µM. Also, the GI50 in test [12] is 30 µM (inactive); in test [13] it was 24.2 µM (inactive); in test [14], 20.4 µM (inactive); in test [15], 38.6 µM (inactive); in test [16], 27.1 µM (inactive); in test [17], 23.7 µM (inactive). In test [18], the GI50 was 35.3 µM (inactive).
For the compound `CC1=NN(c2nc(N)nc(CSCc3nc(N)nc(N(C)C)n3)n2)C(C)(C)C1`, the GI50 in test [20], in [1], in [2], in test [19], in [3] and in test [4] was > 100 µM (inactive) each time. Moreover, the GI50 is > 100 µM (inactive) in [6]; > 100 µM (inactive) in [7]; > 100 µM (inactive) in [8]; > 100 µM (inactive) in test [9]; > 100 µM (inactive) in test [10]; greater than 100 µM in test [11]. Also, the GI50 in test [12], in [13], in test [14], in [15], in test [16] and in test [17] was > 100 µM (inactive) each time. Besides, in test [18], the GI50 was > 100 µM (inactive).
On to `CCCCCCCCCCOC(=O)c1cc[n+](C)cc1`, for which the GI50 in test [1] is 16.7 µM (inactive); in test [2] it was 16.9 µM (inactive); in test [19] it was 17.5 µM (inactive); in test [3], 18 µM (inactive); in test [4], 16.3 µM (inactive); in test [5], 17.1 µM (inactive). Moreover, the GI50 is 16.1 µM (inactive) in test [6]; 17.2 µM (inactive) in [7]; 16.7 µM (inactive) in test [8]; 17.6 µM (inactive) in [9]; 18.2 µM (inactive) in [10]; 15.9 µM in test [11]. Besides, the GI50 in test [12] was 16.7 µM (inactive); in test [13], 17 µM (inactive); in test [14], 17.6 µM (inactive); in [15] it was 18.6 µM (inactive); in test [16], 15.6 µM (inactive); in test [17], 15.8 µM (inactive). Besides, the GI50 in [18] is 19.9 µM (inactive).
On to `CCCCn1c(C)c(C(=O)CC)c(C(=O)NCCN2CCN(c3ccccc3Cl)CC2)c1C`, for which the GI50 is 17.9 µM (inactive) in [1]; 16.1 µM (inactive) in test [2]; 55.1 µM (inactive) in test [19]; 17.6 µM (inactive) in test [3]; 13.7 µM (inactive) in test [4]; 18.1 µM (inactive) in test [5]. Besides, the GI50 in [6] was 17.4 µM (inactive); in test [7] it was 17.3 µM (inactive); in test [8], 13.9 µM (inactive); in test [9], 19.3 µM (inactive); in [10], 18.7 µM (inactive); in [11], 15.7 µM. For the same compound, the GI50 was 13.4 µM (inactive) in [12]; 16.3 µM (inactive) in [13]; 16.1 µM (inactive) in [14]; 16.4 µM (inactive) in test [15]; 17.5 µM (inactive) in test [16]; 14.1 µM (inactive) in test [17]. Further, the GI50 in test [18] was 14.6 µM (inactive).
As to `O=C(c1ccco1)C1CC(c2ccc3ccccc3c2O)=NN1` (stereo not drawn), the GI50 in test [20] is > 100 µM (inactive); in test [1] it was 55.8 µM (inactive); in test [2], > 100 µM (inactive); in [19], 16.8 µM (inactive); in test [3], 54.8 µM (inactive); in test [4] it was 20.2 µM (inactive). Also, the GI50 is > 100 µM (inactive) in test [5]; > 100 µM (inactive) in [6]; 83.2 µM (inactive) in test [7]; 66.1 µM (inactive) in [8]; 36.7 µM (inactive) in [10]; 50.6 µM in test [11]. For the same compound, the GI50 was 86.5 µM (inactive) in test [12]; 47 µM (inactive) in test [13]; 98.9 µM (inactive) in test [14]; > 100 µM (inactive) in test [15]; > 100 µM (inactive) in test [16]; > 100 µM (inactive) in [17]. Moreover, the GI50 in [18] was > 100 µM (inactive).
Regarding `O=C1C=CC(O)(C#CCO)C=C1`, the GI50 was 17.5 µM (inactive) in [20]; 39.3 µM (inactive) in [1]; 15.9 µM (inactive) in [2]; 11.6 µM (inactive) in [19]; 19.5 µM (inactive) in [3]; 2.98 µM (inactive) in test [4]. Besides, the GI50 is 1.95 µM (inactive) in [6]; 13.3 µM (inactive) in [7]; 6.85 µM (inactive) in test [8]; 10.5 µM (inactive) in [9]; 10.3 µM (inactive) in test [10]; 2.69 µM in test [11]. Besides, the GI50 in test [12] is 14.3 µM (inactive); in test [13], 23.8 µM (inactive); in test [14] it was 9.91 µM (inactive); in test [15] it was 13.2 µM (inactive); in [16], 22.4 µM (inactive); in [17] it was 2.59 µM (inactive). Further, in [18], the GI50 is 16.9 µM (inactive).
With `O=c1[nH]nc(-c2ccccc2)n1/N=C/c1ccco1`, the GI50 in [1] was > 100 µM (inactive); in test [2], 29.2 µM (inactive); in [19] it was > 100 µM (inactive); in test [3], > 100 µM (inactive); in test [4], > 100 µM (inactive); in test [5] it was > 100 µM (inactive). Further, the GI50 is > 100 µM (inactive) in test [6]; > 100 µM (inactive) in test [7]; > 100 µM (inactive) in [8]; > 100 µM (inactive) in [9]; > 100 µM (inactive) in test [10]; greater than 100 µM in test [11]. Also, the GI50 in [12], in test [13], in test [14], in [15], in [16] and in test [17] was > 100 µM (inactive) each time. In addition, the GI50 in [18] is > 100 µM (inactive).
Turning to `C[C@]12C[C@@H](OC(=O)[C@]1(C)O)[C@@H]([C@]1(O)CC[C@H]3[C@@H]4C[C@H]5O[C@]56C[C@H]5O[C@H]5C(=O)[C@]6(C)[C@H]4CC[C@@]31C)C2`, the GI50 in test [20] was > 50 µM (inactive); in [1], > 50 µM (inactive); in [2], > 50 µM (inactive); in test [19], > 50 µM (inactive); in [3] it was > 50 µM (inactive); in test [4] it was 14.7 µM (inactive). The GI50 in test [5] was > 5 µM (inactive); in test [6] it was > 50 µM (inactive); in test [7], > 50 µM (inactive); in test [8] it was > 50 µM (inactive); in test [10], > 50 µM (inactive); in test [11], greater than 50 µM. Also, the GI50 in test [12], in test [13], in test [14], in [15], in test [16] and in test [17] was > 50 µM (inactive) in each case. Moreover, the GI50 in test [18] is > 50 µM (inactive).
